Experimental data taken from patent US11311524B2, “Pharmaceutical composition used for treatment of HTLV-1-associated myelopathy” (DAIICHI SANKYO COMPANY, LIMITED, priority 2017, dated 2022).
Where two headings read alike, the source gives them in different places.

Assays:
EZH2 = EZH2 (Homo sapiens, UniProt Q15910); conditions: from WO2015/141616; cited from earlier work
EZH1 = EZH1 (Homo sapiens, UniProt Q92800); conditions: from WO2015/141616; cited from earlier work
HCT-4 cells = experiment: Apoptosis of HCT-4 cells (Annexin V-PE / 7-AAD, FACS); type: cell-based, human; conditions: HCT-4, 1 μM, 21 days
Procedure: In this Example, experiments were carried out using the cells cultured for 21 days in Example 5. To detect apoptotic cells in the cells cultured for 21 days by adding 1 μM of compound A or compound B, the cells were stained by use of PE Annexin V apoptosis Detection Kit I (BD) and analyzed by FACS. In this analysis, the viable cells were detected based on FSC (forward scatter)-SSC (side scatter) plots. The viable cells were analyzed by Annexin V-PE (annexin V) and 7-AAD (7-amino actinomycin D). Early apoptotic cells were detected as Annexin V (+) 7-AAD (−) cells. The results were as shown in FIG. 8 (HCT-4 cells) and FIG. 9 (HCT-5 cells).

HAM patient-derived PBMC = experiment: Autoproliferation (3H-thymidine incorporation) of HAM patient-derived PBMC without stimulation; type: cell-based, human; conditions: for GI50: Homo sapiens, 6 days culture, 3H-thymidine; for Suppression of autoproliferation activity of HAM patient-derived PBMC: no stimulation, relative to DMSO group
Procedure: PBMC taken from 8 HAM patients were suspended in culture mediums (RPMI1640 culture medium (wako) containing 10% FBS (GIBCO)), seeded in a 96-well round-bottom plate in a ratio of 1×10^5 cells per well (3 wells were used for each concentration), and compound A or compound B was added so as to provide a final concentration of 1, 10, 100 or 1000 nM. Culture was carried out at 37° C. in 5% CO2 conditions for 6 days. The DMSO treatment group and the PSL (1 μg/mL) treatment group were used as controls. Day 6 after initiation of culture, 1 μCi ^3H-thymidine was added to each well and culture was carried out at 37° C., in 5% CO2 conditions for 16 hours. Thereafter, the cultured cells were allowed to adsorb to a glass filter (Printed Filtermat A, PerkinElmer) by a cell harvester (Tomtec MH3, PerkinElmer), dried and impregnated with solid scintillator Meltilex-A (PerkinElmer). The amount of the ^3H-thymidine incorporated in the cells was measured by use of MicroBeta (WALLAC MicroBeta TriLux 1450-021) (Yamano et al., PLoS One. 2009, 4(8): e6517). Based on the average count of ^3H-thymidine in the DMSO treatment group of HAM patients' PBMC as 100%, the relative values of the groups treated with compound A, compound B and PSL (1 μg/mL) were obtained by calculation, and then, an average value of 8 HAM patient cases was obtained. A significance test was carried out in accordance with the Friedman test of GraphPad Prism6 (MDF).
The number of patients was increased to 16 and the same experiment as above was carried out.
Effect on HAM patient-derived PBMC was checked in the same manner as in the above Example except that an EZH2 inhibitor was used in place of compounds A and B.
As the EZH2 inhibitor, GSK126 (CAS No.: 1346574-57-9) and E7438 (CAS No.: 1403254-99-8) were used. The concentration for treatment was 1, 10, 100, 1000 or 10000 nM in terms of final concentration. In the experiment, PBMC samples taken from the 8 persons before the number of cases increased in the above were used.

HCT-5 cells = experiment: Proliferation/viability of HTLV-1 infected cell line HCT-5 (CCK-8); type: cell-based, human; conditions: for Viability of HTLV-1 infected cells vs DMSO group: HCT-5, 1 μM, up to 21 days culture; for GI50: Homo sapiens, 336 h, 14 days culture, CCK-8
Procedure: HCT-4 and HCT-5, which were HTLV-1 infected cell lines established from the cerebrospinal fluid of HAM patients, were donated from a professor, Tatsufumi Nakamura of the Nagasaki International University. HCT-4 was cultured in RPMI1640 culture medium containing 10% FBS (GIBCO), a 1% penicillin-streptomycin solution (Wako) and 100 U/mL IL-2 (Cell Science & Technology Institute, Inc.); whereas HCT-5 was cultured by using 10% FBS, 1% penicillin-streptomycin solution, 1% L-glutamine (SIGMA) and 200 U/mL IL-2. HCT-4 (3×10^6 cells) or HCT-5 (2.5×10^6 cells) were seeded in a culture medium (20 mL) in a 75 cm^2-culture flask. DMSO was added and compound A or B was added so as to provide a final concentration of 1 μM and culture was carried out at 37° C. in 5% CO2 conditions for 21 days while repeating subculture. In the subculture, a culture solution containing HCT-4 treated with DMSO so as to correspond to 3×10^6 cells, whereas a culture solution containing HCT-5 treated with DMSO so as to correspond to 2.5×10^6 cells were taken and each added to a new culture medium to obtain a final volume of 20 mL, and then, further compound A or B was added so as to obtain the same concentration as above. Day 7, 14 and 21 after initiation of culture, cells were recovered from the culture solution and the density of the cells was measured. In this manner, the effect of compound A or B on cell proliferation was examined. The density of cells was determined by seeding cultured cells in a 96-well plate in a volume of 100 μL per well, adding 10 μL of Cell counting kit-8 (CCK-8) (Dojindo Laboratories laboratory) per well, incubating the cells at 37° C. for 3 hours and measuring absorbance at 450 nm by a plate reader (iMark Microplate Reader, Biorad). The proliferation rates of cell groups treated with compound A or compound B were each calculated based on the cell group treated with DMSO as a control. Next, in a 6-well plate, HCT-4 (4.5×10^5 cells) or HCT-5 (3.75×10^5 cells) were seeded. A solution of compound A or B prepared with DMSO was serially diluted (4-fold dilution from 10000 nM was serially repeated 8 times) and added thereto. The cells were repeatedly subcultured at intervals of 3 to 4 days in a culture solution of 3 mL in total at 37° C. in 5% CO2 condition for 14 days. […] The cells cultured for 14 days in individual conditions were recovered and the density of the cells were measured. […] The density of cells was determined by seeding the cultured cells (100 μL) per well in a 96-well plate, adding 10 μL of CCK-8 per well, incubating the cells at 37° C. for 3 hours and measuring absorbance at 450 nm by a plate reader. The proliferation rate of a group treated with compound A or compound B was calculated based on the group treated with DMSO as a control.

[1] = PBMC of 8 HAM patients, read-out: GI50, autoproliferation activity of HAM patient-derived PBMC
[2] = PBMC of 16 HAM patients, read-out: GI50, spontaneous proliferation activity of HAM patient-derived PBMC

Sequence of EZH2 (Q15910 whole entry): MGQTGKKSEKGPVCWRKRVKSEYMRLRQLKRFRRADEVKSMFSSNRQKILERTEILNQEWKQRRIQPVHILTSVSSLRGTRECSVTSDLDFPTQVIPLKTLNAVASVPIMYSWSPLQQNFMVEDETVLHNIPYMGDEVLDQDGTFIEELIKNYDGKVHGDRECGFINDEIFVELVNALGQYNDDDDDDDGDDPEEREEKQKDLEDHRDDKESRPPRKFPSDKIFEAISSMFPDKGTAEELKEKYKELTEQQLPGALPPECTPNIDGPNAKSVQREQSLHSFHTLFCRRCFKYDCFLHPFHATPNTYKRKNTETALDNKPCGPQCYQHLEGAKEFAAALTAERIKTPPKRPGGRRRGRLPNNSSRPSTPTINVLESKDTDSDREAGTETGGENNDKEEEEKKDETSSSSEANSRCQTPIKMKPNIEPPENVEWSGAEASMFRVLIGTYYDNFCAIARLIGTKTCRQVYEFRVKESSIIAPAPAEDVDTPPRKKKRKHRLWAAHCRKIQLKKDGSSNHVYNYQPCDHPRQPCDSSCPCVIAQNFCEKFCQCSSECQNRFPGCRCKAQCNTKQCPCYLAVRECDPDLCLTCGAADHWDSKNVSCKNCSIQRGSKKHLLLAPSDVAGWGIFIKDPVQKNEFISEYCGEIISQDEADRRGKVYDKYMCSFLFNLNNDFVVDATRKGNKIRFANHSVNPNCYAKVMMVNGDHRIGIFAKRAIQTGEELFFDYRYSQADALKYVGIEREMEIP
Sequence of EZH2 (O75530 whole entry partner): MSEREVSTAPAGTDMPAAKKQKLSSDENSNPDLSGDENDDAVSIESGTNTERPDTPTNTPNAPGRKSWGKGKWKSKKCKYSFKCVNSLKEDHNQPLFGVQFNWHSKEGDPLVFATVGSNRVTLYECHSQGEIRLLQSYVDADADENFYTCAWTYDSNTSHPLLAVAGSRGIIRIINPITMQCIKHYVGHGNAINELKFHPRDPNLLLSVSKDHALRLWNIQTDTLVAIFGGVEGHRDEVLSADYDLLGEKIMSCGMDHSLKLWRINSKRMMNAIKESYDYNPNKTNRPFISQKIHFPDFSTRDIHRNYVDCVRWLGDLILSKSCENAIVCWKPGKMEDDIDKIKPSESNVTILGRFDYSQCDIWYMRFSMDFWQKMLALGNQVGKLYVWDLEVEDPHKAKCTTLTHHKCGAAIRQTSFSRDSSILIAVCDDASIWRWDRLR
Sequence of EZH2 (Q15022 whole entry partner): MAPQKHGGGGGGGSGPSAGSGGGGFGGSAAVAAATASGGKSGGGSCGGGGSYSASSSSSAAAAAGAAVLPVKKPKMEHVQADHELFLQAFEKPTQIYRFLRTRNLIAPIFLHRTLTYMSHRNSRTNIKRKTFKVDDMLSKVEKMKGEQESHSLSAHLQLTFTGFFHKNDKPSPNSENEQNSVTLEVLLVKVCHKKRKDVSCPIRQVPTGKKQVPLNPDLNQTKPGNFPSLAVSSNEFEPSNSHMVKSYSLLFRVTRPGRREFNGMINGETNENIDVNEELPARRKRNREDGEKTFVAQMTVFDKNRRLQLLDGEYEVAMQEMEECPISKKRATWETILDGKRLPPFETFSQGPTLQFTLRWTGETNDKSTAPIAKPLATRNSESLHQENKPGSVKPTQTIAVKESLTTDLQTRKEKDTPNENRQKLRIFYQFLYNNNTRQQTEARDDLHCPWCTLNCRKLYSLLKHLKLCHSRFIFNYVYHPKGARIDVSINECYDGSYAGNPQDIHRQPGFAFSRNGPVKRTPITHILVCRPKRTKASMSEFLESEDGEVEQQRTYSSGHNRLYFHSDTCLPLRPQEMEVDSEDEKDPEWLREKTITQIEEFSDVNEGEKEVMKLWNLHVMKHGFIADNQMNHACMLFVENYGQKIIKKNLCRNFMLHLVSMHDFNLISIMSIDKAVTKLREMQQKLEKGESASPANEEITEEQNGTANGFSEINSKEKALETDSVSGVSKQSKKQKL
Sequence of EZH2 (Q09028 whole entry partner): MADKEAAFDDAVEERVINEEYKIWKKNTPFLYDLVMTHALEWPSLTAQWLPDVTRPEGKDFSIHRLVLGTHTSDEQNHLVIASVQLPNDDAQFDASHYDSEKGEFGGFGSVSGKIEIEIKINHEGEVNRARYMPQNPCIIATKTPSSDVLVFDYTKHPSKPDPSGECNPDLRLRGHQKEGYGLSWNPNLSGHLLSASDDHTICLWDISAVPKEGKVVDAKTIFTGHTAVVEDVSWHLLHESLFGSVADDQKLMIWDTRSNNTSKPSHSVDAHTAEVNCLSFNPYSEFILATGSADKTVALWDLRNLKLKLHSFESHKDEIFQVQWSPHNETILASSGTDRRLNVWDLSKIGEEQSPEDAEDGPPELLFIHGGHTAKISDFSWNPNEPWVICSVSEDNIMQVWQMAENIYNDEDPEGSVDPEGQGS
Sequence of EZH1 (Q92800 whole entry): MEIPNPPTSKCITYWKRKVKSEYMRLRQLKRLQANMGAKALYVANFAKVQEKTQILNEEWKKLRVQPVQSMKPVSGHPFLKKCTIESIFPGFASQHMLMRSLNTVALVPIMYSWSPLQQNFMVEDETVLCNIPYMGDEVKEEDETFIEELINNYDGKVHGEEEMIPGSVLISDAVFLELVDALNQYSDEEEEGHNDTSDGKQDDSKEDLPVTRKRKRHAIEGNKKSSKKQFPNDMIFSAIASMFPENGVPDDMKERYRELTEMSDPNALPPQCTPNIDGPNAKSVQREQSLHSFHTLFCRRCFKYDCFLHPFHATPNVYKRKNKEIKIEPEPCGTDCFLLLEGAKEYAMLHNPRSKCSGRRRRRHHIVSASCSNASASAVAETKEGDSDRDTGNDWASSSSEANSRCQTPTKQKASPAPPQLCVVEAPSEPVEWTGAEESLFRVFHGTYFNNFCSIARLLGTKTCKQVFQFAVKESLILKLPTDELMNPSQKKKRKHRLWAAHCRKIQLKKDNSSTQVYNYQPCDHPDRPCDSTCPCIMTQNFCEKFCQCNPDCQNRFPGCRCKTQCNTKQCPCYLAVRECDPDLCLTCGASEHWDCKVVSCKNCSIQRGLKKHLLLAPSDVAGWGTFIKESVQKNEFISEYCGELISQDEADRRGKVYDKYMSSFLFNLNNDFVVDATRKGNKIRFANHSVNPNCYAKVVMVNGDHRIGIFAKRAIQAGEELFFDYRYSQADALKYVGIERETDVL
Sequence of EZH1 (O75530 whole entry partner): as the sequence (O75530 whole entry partner) above
Sequence of EZH1 (Q15022 whole entry partner): as the sequence (Q15022 whole entry partner) above
Sequence of EZH1 (Q09028 whole entry partner): as the sequence (Q09028 whole entry partner) above

Structure (SMILES)	Inhibition of enzyme activity of EZH2 (EZH2)	Inhibition of enzyme activity of EZH1 (EZH1)	Number of early apoptotic cells (Annexin V (+) 7-AAD (−)) (HCT-4 cells)	Number of viable cells (FSC-SSC) (HCT-4 cells)	GI50 (HAM patient-derived PBMC; [1]) [µM]	GI50 (HAM patient-derived PBMC; [2]) [µM]	Suppression of autoproliferation activity of HAM patient-derived PBMC (HAM patient-derived PBMC)	Viability of HTLV-1 infected cells vs DMSO group (HCT-5 cells)	GI50 (HCT-5 cells) [µM]
Cc1cc(C)c(CNC(=O)c2cc(Br)c3c(c2C)O[C@@](C)([C@H]2CC[C@H](N(C)C)CC2)O3)c(=O)[nH]1 [compound A, (2R)-7-bromo-2-[trans-4-(dimethylamino)cyclohexyl]-N-[(4,6-dimethyl-2-oxo-1,2-dihydropyridin-3-yl)methyl]-2,4-dimethyl-1,3-benzodioxole-5-carboxamide]	inhibit	inhibit	the number of early apoptotic cells increased	the number of viable cells decreases	0.073	0.0456	suppressed autoproliferation activity of PBMC in all the eight HAM patient cases, in a concentration-dependent manner	significantly reduce the viability	0.185
Cc1cc(C)c(CNC(=O)c2cc(Cl)c3c(c2C)O[C@@](C)([C@H]2CC[C@H](N(C)C)CC2)O3)c(=O)[nH]1 [compound B, (2R)-7-chloro-2-[trans-4-(dimethylamino)cyclohexyl]-N-[(4,6-dimethyl-2-oxo-1,2-dihydropyridin-3-yl)methyl]-2,4-dimethyl-1,3-benzodioxole-5-carboxamide]	inhibit	inhibit	the number of early apoptotic cells increased	the number of viable cells decreases	0.0339	0.0259	suppressed autoproliferation activity of PBMC in all the eight HAM patient cases, in a concentration-dependent manner	significantly reduce the viability	0.0906
